Test results from ChEMBL document CHEMBL2073742, “The rat canalicular conjugate export pump (Mrp2) is down-regulated in intrahepatic and obstructive cholestasis” (Gastroenterology, 1997).

Molecular target: ATP-binding cassette sub-family C member 2 (Rattus norvegicus, UniProt Q63120)
Test: TP_TRANSPORTER: Western in vivo, liver of SD rat
Format: functional, organism-based, Sprague-Dawley

ATP-binding cassette sub-family C member 2, sequence (Q63120 whole entry): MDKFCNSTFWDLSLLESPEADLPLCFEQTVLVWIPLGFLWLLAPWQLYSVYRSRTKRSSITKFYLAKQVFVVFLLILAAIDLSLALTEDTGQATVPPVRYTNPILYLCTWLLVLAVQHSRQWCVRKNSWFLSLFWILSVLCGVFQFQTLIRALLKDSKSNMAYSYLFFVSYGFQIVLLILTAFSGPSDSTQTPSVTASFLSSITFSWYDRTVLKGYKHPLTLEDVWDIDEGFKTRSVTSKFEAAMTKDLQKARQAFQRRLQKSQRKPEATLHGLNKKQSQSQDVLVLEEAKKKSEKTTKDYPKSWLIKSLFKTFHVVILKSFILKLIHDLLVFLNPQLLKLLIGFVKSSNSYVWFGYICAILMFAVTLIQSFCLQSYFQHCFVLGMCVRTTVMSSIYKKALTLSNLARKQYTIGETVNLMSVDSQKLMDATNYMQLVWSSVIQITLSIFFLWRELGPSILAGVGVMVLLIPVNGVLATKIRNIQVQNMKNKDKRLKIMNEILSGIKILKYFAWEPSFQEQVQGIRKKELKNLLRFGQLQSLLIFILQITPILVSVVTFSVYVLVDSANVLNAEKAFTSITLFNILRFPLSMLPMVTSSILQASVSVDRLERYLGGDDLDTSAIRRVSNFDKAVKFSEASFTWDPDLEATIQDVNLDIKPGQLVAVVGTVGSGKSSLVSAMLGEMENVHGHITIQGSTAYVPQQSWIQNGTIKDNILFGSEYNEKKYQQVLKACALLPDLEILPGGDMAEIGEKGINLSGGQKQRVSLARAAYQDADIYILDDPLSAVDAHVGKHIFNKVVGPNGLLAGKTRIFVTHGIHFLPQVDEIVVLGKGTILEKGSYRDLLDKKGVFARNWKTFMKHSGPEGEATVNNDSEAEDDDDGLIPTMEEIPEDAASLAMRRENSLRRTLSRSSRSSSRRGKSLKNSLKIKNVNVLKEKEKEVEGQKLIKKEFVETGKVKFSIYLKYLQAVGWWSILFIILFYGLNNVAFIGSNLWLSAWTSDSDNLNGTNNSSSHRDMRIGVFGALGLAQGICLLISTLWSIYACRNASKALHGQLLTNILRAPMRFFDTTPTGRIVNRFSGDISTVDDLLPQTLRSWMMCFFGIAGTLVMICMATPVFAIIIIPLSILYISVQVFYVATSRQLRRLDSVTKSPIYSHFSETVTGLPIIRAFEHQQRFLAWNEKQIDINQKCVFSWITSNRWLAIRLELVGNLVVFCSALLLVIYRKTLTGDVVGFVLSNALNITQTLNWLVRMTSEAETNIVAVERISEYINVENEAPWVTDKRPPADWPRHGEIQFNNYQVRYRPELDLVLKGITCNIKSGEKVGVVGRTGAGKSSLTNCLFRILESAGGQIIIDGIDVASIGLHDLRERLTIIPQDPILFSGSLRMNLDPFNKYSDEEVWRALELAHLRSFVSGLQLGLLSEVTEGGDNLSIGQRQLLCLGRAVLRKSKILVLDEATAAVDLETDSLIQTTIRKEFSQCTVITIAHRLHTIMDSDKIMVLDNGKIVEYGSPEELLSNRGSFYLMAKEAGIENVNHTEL

Activity: inducer [Decrease]
SMILES: C#C[C@]1(O)CC[C@H]2[C@@H]3CCc4cc(O)ccc4[C@H]3CC[C@@]21C [ETHINYL ESTRADIOL]
